Assay results reported in publication PMC11856108, “Capsaicin (But Not Other Vanillins) Enhances Estrogen Binding to Its Receptor: Implications for Power Sports and Cancers” (Life, 2025).
Entries after “also recorded” stand apart in the source; their conditions may differ. Read-outs that look alike come from different tables or passages of the source.

Legend:
[1] = molecular target: insulin receptor (IR) (Homo sapiens, UniProt P06213); experiment: Binding to the insulin receptor by ultraviolet spectroscopy; conditions: UV spectroscopy
insulin receptor (IR), sequence (P06213 28-1382, species assumed): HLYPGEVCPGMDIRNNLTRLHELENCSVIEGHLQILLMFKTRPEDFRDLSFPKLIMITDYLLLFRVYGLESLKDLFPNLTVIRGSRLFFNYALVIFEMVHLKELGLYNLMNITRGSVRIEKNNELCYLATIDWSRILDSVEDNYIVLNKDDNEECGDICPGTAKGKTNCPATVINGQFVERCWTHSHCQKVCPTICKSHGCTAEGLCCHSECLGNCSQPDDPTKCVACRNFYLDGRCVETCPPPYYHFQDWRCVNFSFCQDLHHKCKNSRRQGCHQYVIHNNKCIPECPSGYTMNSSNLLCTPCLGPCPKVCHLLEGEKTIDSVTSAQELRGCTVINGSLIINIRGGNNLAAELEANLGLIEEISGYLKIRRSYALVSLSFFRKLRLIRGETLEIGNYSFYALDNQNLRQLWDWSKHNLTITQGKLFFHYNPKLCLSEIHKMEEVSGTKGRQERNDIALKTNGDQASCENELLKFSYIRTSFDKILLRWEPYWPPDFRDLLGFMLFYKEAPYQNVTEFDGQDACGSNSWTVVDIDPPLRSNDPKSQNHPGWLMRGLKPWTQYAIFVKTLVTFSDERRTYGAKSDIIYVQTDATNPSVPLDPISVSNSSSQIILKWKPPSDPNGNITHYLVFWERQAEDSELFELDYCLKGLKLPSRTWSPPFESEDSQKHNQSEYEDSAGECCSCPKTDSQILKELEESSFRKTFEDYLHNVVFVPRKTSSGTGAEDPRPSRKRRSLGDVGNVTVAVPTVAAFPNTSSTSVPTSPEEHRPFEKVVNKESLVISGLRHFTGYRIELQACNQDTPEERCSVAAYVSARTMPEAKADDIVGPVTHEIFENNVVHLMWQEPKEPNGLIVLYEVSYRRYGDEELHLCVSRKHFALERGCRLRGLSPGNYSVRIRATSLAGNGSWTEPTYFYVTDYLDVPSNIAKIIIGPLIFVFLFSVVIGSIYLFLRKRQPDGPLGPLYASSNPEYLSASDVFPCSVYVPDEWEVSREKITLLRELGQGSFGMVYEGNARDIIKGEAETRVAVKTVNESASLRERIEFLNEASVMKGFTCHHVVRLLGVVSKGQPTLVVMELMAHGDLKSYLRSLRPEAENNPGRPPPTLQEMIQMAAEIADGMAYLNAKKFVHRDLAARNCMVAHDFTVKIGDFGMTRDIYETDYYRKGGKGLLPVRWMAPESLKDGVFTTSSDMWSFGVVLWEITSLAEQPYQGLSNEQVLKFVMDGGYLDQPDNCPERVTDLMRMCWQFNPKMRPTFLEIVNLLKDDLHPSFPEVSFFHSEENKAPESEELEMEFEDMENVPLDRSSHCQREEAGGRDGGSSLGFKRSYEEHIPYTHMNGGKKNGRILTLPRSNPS
Protocol: UV spectroscopy in a crystal plate was used to investigate whether CAP has specificity for estrogen alone or whether it can bind to other naturally occurring hormones. To start, CAP was dissolved in a 1:1 solution of water to ethanol at 1 mg/mL ( 3.27×10^−3 M ) and then diluted by thirds eight times. Next, the hormones were dissolved in a 1:1 solution of water to ethanol at a 1/100 dilution. An amount of 50 μL of each CAP dilution was added to 3 wells of a crystal plate, with one well serving as the control, with another 50 μL of 1:1 water to ethanol added, and the other two serving as experimental duplicates, with 50 μL of the prepared hormone solution added. Then, two additional wells were prepared to serve as controls: one containing 100 μL of 1:1 water to ethanol and the other containing 50 μL of prepared hormone solution and 50 μL of 1:1 water to ethanol. Finally, the plate was incubated for 1 h and read in a Spectramax UV-VIS scanning spectrophotometer, spanning wavelengths from 190 to 400 nm. Data analysis involved the subtraction of observed absorbance values from expected absorbance values generated from the control wells ([CAP + 1:1 solution] + [hormone + 1:1 solution] − [1:1 solution]) and plotting them as a function of CAP concentration. Because the solvent (1:1 solution of water–ethanol) was used as a control and subtracted from all wells, the resulting data reflected only the absorbances of the solute compounds. Since each compound has a different lambda maximal absorbance, analysis of the resulting data required finding one common wavelength at which the additions and subtractions of the spectra could be carried out and at which the absorbance of each compound was maximized.
[17, 19, 20, 21, 22, 23]. […] Because CAP binds to INS, it was possible that it might antagonize INS binding to its receptor. […] Two types of ultraviolet spectroscopy experiments were performed. In one, INS (1 µM) and the IR were kept constant and the concentration of CAP increased from 0.1 µM to 100 µM. In the other, the CAP (25 µM) and IR were kept constant and the concentration of INS increased from 10 nM to 10 µM. In neither experiment was any significant change in the INS binding curve observed.
CAP did bind to the ESR1 with what appears to be a high affinity (Kd = 0.9 µM) and a lower affinity (Kd = 10 µM) site. […] Other vanilloid compounds also bound to the ESR1 but with lower affinity than CAP (Figure 6). None bound to the IR.

[2] = molecular target: T1, Estrogen receptor alpha (ER alpha) recombinant protein (ESR1) (Homo sapiens, UniProt P03372); experiment: Binding to the estrogen receptor by ultraviolet spectroscopy
T1 sequence (P03372 1-595): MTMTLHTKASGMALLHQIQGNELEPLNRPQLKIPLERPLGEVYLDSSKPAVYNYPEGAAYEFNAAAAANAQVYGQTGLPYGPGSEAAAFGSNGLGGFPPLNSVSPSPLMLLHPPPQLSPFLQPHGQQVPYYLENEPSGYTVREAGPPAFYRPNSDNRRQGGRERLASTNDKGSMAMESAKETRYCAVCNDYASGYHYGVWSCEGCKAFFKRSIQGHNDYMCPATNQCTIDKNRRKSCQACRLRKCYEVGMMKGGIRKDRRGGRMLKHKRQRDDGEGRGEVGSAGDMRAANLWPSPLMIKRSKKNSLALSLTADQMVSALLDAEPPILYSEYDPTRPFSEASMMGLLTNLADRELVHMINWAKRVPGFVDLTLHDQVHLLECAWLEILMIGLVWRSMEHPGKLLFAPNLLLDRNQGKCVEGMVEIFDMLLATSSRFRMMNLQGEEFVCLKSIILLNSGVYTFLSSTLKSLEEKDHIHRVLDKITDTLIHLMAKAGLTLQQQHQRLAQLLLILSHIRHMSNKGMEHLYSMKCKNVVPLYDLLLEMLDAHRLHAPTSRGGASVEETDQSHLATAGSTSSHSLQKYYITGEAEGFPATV

[3] = set-up: method as in PMID 26247812; conditions: DPPC mem-brane model; cited from earlier work
[4] = test system: Mice; set-up: method as in PMID 38700794; conditions: cited from earlier work
[5] = test system: Mice; set-up: method as in PMID 23536811; conditions: cited from earlier work
[6] = test system: Mice: TRPV1+ vs. TRPV1-; set-up: method as in PMID 32400193; conditions: cited from earlier work
[7] = molecular target: T2, ESR1 (Homo sapiens, UniProt P03372); experiment: Competitive-binding ELISA of EST-HRP binding to the estrogen receptor; conditions: for shift of the estradiol (EST-HRP) binding curve: maximal shift
T2 construct: purchased Invitrogen-Thermofisher
T2 sequence (P03372 1-595): T1 sequence (P03372 1-595)

COc1cc(CNC(=O)CCCC/C=C/C(C)C)ccc1O [Capsaicin, trans-8-methyl-N-vanillyl-6-nonenamide]
binding to the insulin receptor (in words) ([1]; listed as CAP): did not bind significantly to the IR except at concentrations well beyond those physiologically possible | binding to the insulin receptor (in words) ([1]; listed as capsaicin): not the insulin receptor | Kd [2]: 0.9 µM | binding to the estrogen receptor (in words) ([2]; UV spectroscopy): bound to the estrogen receptor | binding to the estrogen receptor (in words) ([2]; UV spectroscopy, listed as CAP): bind directly to the estrogen receptor | Kd ([2]; read-out: Kd, ESR1 lower affinity site, UV spectroscopy): 10 µM | Upregulates [3]: >Increases membrane fluidity | Cancer-Related Effects [4]: >Ameliorated changes to the histological structure, prostate weight and prostate index (prostate/body weight ratio) | Downregulates or Inhibits [4]: >TGF-β1/Smad signaling pathway → expression of E-cadherin, TGFBR2, TGF-β1 and p-Smad2/3 >IGF-1/AKT signaling pathway → expression of IGF-1, IGF-1R, p-AKT and RAGE >Androgen signaling pathway → expression of 5-αreductase type II, AR and PSA | Upregulates [4]: >TGF-β1/Smad signaling pathway → expression of N-cadherin, vimentin, fibronectin >TRPV-1-mediated apoptosis | Capsaicin Upregulates [5]: >Ca^2+ ion release into the cell via TRPV-1 activation >Muscle actin–myosin interaction >Force generation >Intramuscular triglyceride consumption | Cancer-Related Effects [6]: >Chemoprevention | Downregulates or Inhibits [6]: >Blocked metastatic burden >Mechanism unknown | competition with estradiol for binding to ESR1 [7]: did not compete with estradiol for binding to ESR1 | effect on estradiol (EST-HRP) binding to the estrogen receptor ([7]; listed as CAP): enhanced binding of estradiol to its receptor in a concentration-dependent manner; also recorded: increases binding of estradiol to its receptor | shift of the estradiol (EST-HRP) binding curve [7]: approximately a half of a log unit | shift of the estradiol (EST-HRP) binding curve ([7]; listed as CAP): half-log leftward shift
